Patent US20060019241A1, “Na+ and CI-coupled transport system for endogenous opioid peptides” (priority 2004, published 2006)
“Also recorded” adds a separate entry of the source.

Columns and labels:
Assay type in all cases: cell-based, human
[1] = tested on: deltorphin II transport system in Tat-ARPE-19 cells; assay: Inhibition of [^3H]deltorphin II uptake in Tat-ARPE-19 cells; details: [^3H]deltorphin II 50 nM; for competition with deltorphin for the uptake process (in words): Tat-ARPE-19 / RPE cells, compound 1 mM; for [^3H] Deltorphin II uptake / [^3H] Deltorphin II uptake (%) of control: Tat-ARPE-19 cells, 30 minutes, NaCl, inhibitor 1 mM; for [^3H] Deltorphin II uptake (%) of control: control = 100
Source text: (§1) Stable transfection of ARPE-19 cells with pcDNA-Tat cDNA. The pGEM2-Tat cDNA construct contained as the insert a 295 basepair (bp) fragment encoding the first exon of HIV-1 Tat gene joined to a 145 bp pET3A transcription terminator. The entire insert (440 bp) was removed from the construct by digestion with PstI and EcoRI and ligated into the multiple cloning region of pcDNA3.1 (−) vector at PstI/EcoRI site so that the insert is downstream of the cytomegalovirus (CMV) promoter. The resultant construct was sequenced to confirm the orientation of the insert. This construct was electroporated into ARPE-19 cells and the stably transfected cell clones were isolated in the presence of Geneticin (G418). To serve as a control, empty pcDNA3.1 vector was electroporated into ARPE-19 cells in an identical manner and the clones harboring the vector were selected by G418 resistance.
(§2) Uptake measurements in control ARPE-19 cells and Tat-ARPE-19 cells. Control ARPE-19 cells and Tat-ARPE-19 cells were maintained in 75-cm^2 culture flasks in Dulbecco's modified Eagle's medium/F12 medium (1:1, volume/volume (v/v)) in the presence of fetal bovine serum (10%) and G418 (100 μg/ml). For uptake measurements, cells were released by trypsin treatment and seeded in 24-well culture plates at an initial density of 0.1×10^6 cells/well. The culture medium was replaced with fresh medium on the second day following the initial seeding and uptake measurements were made on the third day. […] After incubation at 37° C. for a desired time, uptake was terminated by the removal of the medium and washing of the cells with ice-cold uptake buffer. The cells were then dissolved in 1% SDS in 0.2 M NaOH and used for measurement of radioactivity. The uptake buffer in most experiments was 25 mM Hepes/Tris (pH 7.5), containing 140 mM NaCl, 5.4 mM KCl, 1.8 mM CaCl2, 0.8 mM MgSO4 and 5 mM glucose.
When the influence of Na^+ on the uptake process was investigated, the concentration of NaCl in the uptake buffer was adjusted, as desired, by isoosmotically replacing NaCl with N-methyl-D-glucamine chloride. To assess the influence of Cl^− on the uptake process, the composition of the uptake medium was modified by replacing KCl and CaCl2 with equimolar concentrations of potassium gluconate and calcium gluconate and the concentration of NaCl was adjusted, as desired, by iso-osmotically replacing NaCl with sodium gluconate. Saturation kinetics were analysed by fitting the data to the Michaelis-Menten equation. The Michaelis-Menten constant, Kt, was calculated by non-linear regression analysis and then confirmed by linear regression. Na^+- and Cl^−-activation kinetics were analyzed by fitting the data to the Hill equation and the Hill coefficients for Na^+ and Cl^− (h; the number of Na^+ and Cl^− ions involved in the activation process) and the K0.5 values (the concentration of Na^+ and Cl^−-needed for half-maximal activation) were determined from the analysis. Again, these constants were first calculated by non-linear regression methods and subsequently confirmed by linear regression methods. Experiments were repeated three times in duplicate and the results are given as means±S.E.M.
(§3) Substrate specificity of the deltorphin transport system. […] These peptides consisted of 4-13 amino acids.
Relative affinities of endogenous opioid peptides for the transport system.

[2] = tested on: enkephalin/endorphin transport system in SK—N—SH cells; assay: [^3H]deltorphin II uptake in SK—N—SH cells, effect of peptides and amino acids; details: for IC50: read-out: affinity for the transport system (concentration-dependent inhibition of [^3H]deltorphin II uptake), [^3H]deltorphin II 25 nM; for effect on [^3H]deltorphin II uptake (in words) / Deltorphin II uptake: NaCl, 30 minutes; for effect on [^3H]deltorphin II uptake (in words): test substance 1 mM; for Deltorphin II uptake: compound 1 mM
Procedure: as §2
Since enkephalins and endorphins are relevant to pain perception and to further provide evidence in support of a role for the transport system in opioidergic neurotransmission, the human neuronal cell line SK—N—SH was tested for expression of the transport system. […] Unless otherwise specified, procedures are as detailed in Example 1.
The concentration of enkephalins and dynorphins was 1 mM.
Finally, the relative affinity of various enkephalins and dynorphins for the transport system in SK—N—SH cells was determined.
To the further characterize the opioid transport of the present invention, various specific peptides that act as positive modulators of the enkephalin/endorphin transport system in the human neuronal cell line SK—N—SH were identified. Unless otherwise specified, procedures are as detailed in Example 1. […] Uptake was measured in the presence of NaCl for 30 minutes. The concentration of the dipeptides was 1 mM.
Uptake was measured in the presence of NaCl for 30 minutes. The concentration of the tripeptides was 1 mM.
Unless otherwise specified, procedures are as described in more detail in Example 1.
The dose-response relationship for the inhibition of the enkephalin/endorphin transport system by L-Lysine and its methyl and ethyl esters is shown in FIG. 15.

[3] = tested on: deltorphin II transport system in control ARPE-19 cells; assay: Inhibition of [^3H]deltorphin II uptake in control ARPE-19 cells; details: [^3H]deltorphin II 50 nM, 30 minutes, NaCl, peptide/antagonist 1 mM; for [^3H] Deltorphin II uptake: control ARPE-19 cells (pcDNA vector alone); for [^3H] Deltorphin II uptake (%) of control: control ARPE-19 cells, control = 100
Source text: as §1, §2, §3

Molecule | [^3H] Deltorphin II uptake [1] | [^3H] Deltorphin II uptake (%) of control [1] | [^3H] Deltorphin II uptake [3] | [^3H] Deltorphin II uptake (%) of control [3] | effect on [^3H]deltorphin II uptake (in words) ([2]; [^3H]deltorphin II 25 nM) | further results
Tyr-Gly-Gly-Phe-Leu [Leu-enkephalin] | 0.15 ± 0.01 pmol/mg protein/30 min | 2% | – | – | – | competition with deltorphin for the uptake process (in words) [1]: marked inhibition; IC50 [2]: 7.8 ± 1.2 µM
YGGFMRF [[Arg^6, Phe^7] Met-enkephalin, Tyr-Gly-Gly-Phe-Met-Arg-Phe] | 0.11 ± 0.01 pmol/mg protein/30 min | 1% | 0.05 ± 0.001 pmol/mg protein/30 min | 4% | – | –
Glu-Gly-Phe | – | – | – | – | ability to stimulate the uptake | –
C[C@@H](N)C(=O)O [D-alanine] | – | – | – | – | significant inhibition | –
N[C@H](Cc1ccc(O)cc1)C(=O)O [D-Tyrosine] | 4.05 ± 0.09 pmol/mg protein/30 min | 52% | – | – | significant inhibition | –
N=C(N)NCCC[C@H](N)C(=O)O [L-Arg, L-arginine] | – | – | – | – | significant inhibition | Deltorphin II uptake ([2]; [^3H]deltorphin II 25 nM): 1.46 ± 0.12 pmol/30 min/mg protein
CC(C)[C@H](N)C(=O)O [L-valine] | – | – | – | – | significant inhibition | –
Gly-Gly-Phe | – | – | – | – | ability to stimulate the uptake | –
Tyr-Gly-Gly-Phe-Met [Met-enkephalin] | 0.50 ± 0.01 pmol/mg protein/30 min | 6% | 0.06 ± 0.004 pmol/mg protein/30 min | 5% | – | competition with deltorphin for the uptake process (in words) [1]: marked inhibition; IC50 [2]: 10.7 ± 3.1 µM
YGGFLRR [Dynorphin A (1-7), Tyr-Gly-Gly-Phe-Leu-Arg-Arg] | 0.10 ± 0.02 pmol/mg protein/30 min | 1% | 0.05 ± 0.002 pmol/mg protein/30 min | 5% | – | IC50 [2]: 4.6 ± 1.1 µM
CCOC(=O)[C@@H](N)CCCCN [Lys-ethyl ester, L-lysylethyl ester] | – | – | – | – | – | Deltorphin II uptake ([2]; [^3H]deltorphin II 25 nM): 0.55 ± 0.05 pmol/30 min/mg protein; Ki ([2]; read-out: Ki for inhibition of deltorphin II uptake, dose-response studies): 154 ± 34 µM
O=C1CC[C@@]2(O)[C@H]3Cc4ccc(O)c5c4[C@@]2(CCN3CC2CC2)[C@H]1O5 [Naltrexone] | – | – | 1.12 ± 0.02 pmol/mg protein/30 min | 104% | – | –
NC(=O)NCCC[C@H](N)C(=O)O [L-Citrulline] | – | – | – | – | – | Deltorphin II uptake ([2]; [^3H]deltorphin II 25 nM): 2.18 ± 0.06 pmol/30 min/mg protein
Gly-Gly-Ile | – | – | – | – | ability to stimulate the uptake; also recorded: stimulated | influence on kinetic parameters of deltorphin II uptake ([2]; 1 mM Gly-Gly-Ile): increasing the maximal velocity of the system without affecting the affinity for its substrate; stimulation of deltorphin II uptake ([2]; [^3H]deltorphin II 25 nM, peptide 1 mM): 6- to 8 fold
CC(=O)N[C@@H](CCCCN)C(=O)O [α-N-acetyl-L-Lys] | – | – | – | – | – | Deltorphin II uptake ([2]; [^3H]deltorphin II 25 nM): 2.82 ± 0.08 pmol/30 min/mg protein
C=CCN1CC[C@]23c4c5ccc(O)c4O[C@H]2C(=O)CC[C@@]3(O)[C@H]1C5 [Naloxone] | – | – | 1.01 ± 0.00 pmol/mg protein/30 min | 94% | – | –
YGGFLR [Dynorphin A (1-6), Tyr-Gly-Gly-Phe-Leu-Arg] | 0.12 ± 0.00 pmol/mg protein/30 min | 2% | 0.06 ± 0.001 pmol/mg protein/30 min | 5% | – | IC50 [2]: 3.5 ± 0.4 µM
NCCCC[C@@H](N)C(=O)O [D-Lys, D-lysine] | – | – | – | – | no effect | Deltorphin II uptake ([2]; [^3H]deltorphin II 25 nM): 2.60 ± 0.31 pmol/30 min/mg protein
